Test system: RHE-MEL 3D in vitro Caucasian skin model
Assay: Skin pigmentation (ITA°) on melanized reconstructed human epidermis 3D model RHE-MEL
Assay type: cell-based
Conditions: 14 days study, treated daily for 10 days; Skin Care Composition at 1%, niacinamide at same use level; versus untreated
Method: The protocol for this study including the following. A melanized reconstructed human epidermis 3D Model (RHE-MEL) (in vitro Caucasian skin model) was used. The study duration was for 14 days. The RHE-MEL 3D in vitro skin tissues were allowed to grow in the first 4 days. The 3D skin tissues were treated every day with the materials for 10 days. The following samples were used: Untreated sample, Benchmark Niacinamide (at same use level as in Skin Care Composition), and Skin Care Composition used at 1%. Concentrations of materials were predetermined based on screening MTT assay. A C-Cube Dermoscope® (a high quality magnifying lens and a powerful lighting system used to evaluate pigmented skin lesions, and can diagnose melanoma), was used coupled with C-Cube clinical software for image analysis. Skin pigmentation was analyzed via high resolution pictures obtained from the C-Cube Dermoscope® coupled with an image analysis software. ITA° parameter was measured as degree of pigmentation of the skin directly on in vitro 3D RHE-MEL skin model. Statistical analysis was done using the Student T-test with a confidence level of (p<0.05).
In this 3D RHE-MEL in vitro Caucasian model skin measured was the intensity of the skin pigmentation degree by ITA° parameter (individual typological angle). […]

NC(=O)c1cccnc1 [Niacinamide]
ITA° (individual typology angle), degree of skin pigmentation: increased the ITA°
